These are literature values, as cited in patent US20010056087A1, “Use of 5alpha-androst-1en-3,17-diol to increase the level of the anabolic/androgenic hormone 17beta-hydroxy-5alpha-androst-1-en-3-one in humans” (priority 2000, published 2001).

The conditions of this series: One hundred mg given orally to men.

`C[C@]12C=CC(=O)C[C@@H]1CC[C@@H]1[C@@H]2CC[C@]2(C)C(=O)CC[C@@H]12` [1-androstenedione, 5alpha-androst-1-en-3,17-dione]: the “excretion of 17beta-hydroxy-5alpha-androst-1-en-3-one in the urine (in-vivo conversion)” value is on record as “considerable excretion of 17beta-hydroxy-5alpha-androst-1-en-3-one in the urine”.
